The target of the test is human GPR120 (Homo sapiens (Human), UniProt Q5NUL3). As to the kind of experiment: GPR120 pERK AlphaScreen SureFire Assay (human GPR120 pERK assay). The class given is cell-based. The following applies: CHO cells stably transfected with short form of human GPR120. The text has this: GPR120 activity was monitored by measuring phosphorylation of ERK (pERK), since G protein receptors are known to activate the ERK signaling cascade either directly and/or through recruitment of arrestin that serves as a scaffold for downstream signaling events.
Sequence of human GPR120 (Q5NUL3 whole entry): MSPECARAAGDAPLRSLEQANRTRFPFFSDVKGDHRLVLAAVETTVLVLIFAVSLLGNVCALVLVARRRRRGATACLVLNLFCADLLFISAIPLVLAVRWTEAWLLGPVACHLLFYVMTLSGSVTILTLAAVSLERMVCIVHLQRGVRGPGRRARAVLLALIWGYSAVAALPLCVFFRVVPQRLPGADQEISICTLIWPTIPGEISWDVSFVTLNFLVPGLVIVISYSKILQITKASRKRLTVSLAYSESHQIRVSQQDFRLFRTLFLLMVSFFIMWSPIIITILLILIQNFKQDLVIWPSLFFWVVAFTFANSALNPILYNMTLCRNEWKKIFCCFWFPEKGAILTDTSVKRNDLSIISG
GPR120 pERK AlphaScreen SureFire Assay
The human and mouse GPR120-mediated intracellular phosphorylated ERK assays were established using CHOA12 cells stably transfected with the short form of human or mouse GPR120 receptor. Cells were cultured in growth medium consisting of F-12 media (Invitrogen Cat. #11765) with 5% Charcoal/Dextran FBS (Invitrogen Cat. #12676-029), 500 μg/mL GENETICIN® (Life Technologies Cat. #10131-027) and 250 μg/mL Zeocin (Invitrogen Cat. #R250-01). Cells were cryo-preserved at a concentration of 2×10^7 cells/mL, in 90% Charcoal/Dextran FBS and 10% DMSO, and frozen in liquid nitrogen at a low passage number.
For the pERK assay, 2×10^7 cells/mL cryopreserved human and mouse cells were thawed rapidly in a 37° C. water bath and added to a T-225 flask containing 50 mL growth medium. The flasks were placed in a tissue culture incubator overnight (37° C., 5% CO2). The next day, cells were harvested with trypsin (Gibco Cat. #25300-054), resuspended in serum-containing growth medium and counted using a Cellometer and volume adjusted to a concentration of 0.6×10^6 cells/mL. Cells were plated into 384-well clear bottom tissue culture plates (BD Cat. #353962) at 50 μL/well, for a density of 30,000 cells/well using a MULTIDROP® and incubated for 16-18 hours (overnight) at 37° C. with 5% CO2. The next day, cells were serum starved in 30 μL of F-12 media without any serum or antibiotics for 2 hours at 37° C.
Test compounds were 3-fold, 11-point serially diluted in DMSO in a REMP assay plate (Matrix Cat. #4307) by Tecan and 5 μL was transferred into an ECHO source plate (Labcyte Cat. #LC-0200). Cells were then stimulated with 50 nL of compound dilutions using ECHO liquid handler for 7 min at 37° C. Compounds ranged from final assay concentrations of 33.33 μM to 0.56 nM.
The media was then dumped and cells lysed with 20 μL of 1× Lysis buffer from the AlphaScreen SureFire Phospho-ERK 1/2 Kit (Perkin Elmer Cat. #6760617M). The lysis buffer was diluted 5-fold with water before use. The plate was agitated on a shaker for 10 min after which 2 μL was transferred into a 384-well white proxiplate (Perkin Elmer Cat. #6008289). The SureFire assay reagent mix was prepared by mixing 60 parts Reaction Buffer, 10 parts Activation Buffer, 1 part Donor Beads, 1 part Acceptor Beads (Perkin Elmer Cat. #TGRES10K). 3.5 μL/well of this reagent mix was manually added to the proxiplate with a multichannel pipettor. Plates were spun down at 1000 rpm for 2 min, followed by light-protected incubation at room temperature for 2 hours. The plates were read on the Alpha-technology compatible Envision multilabel plate reader using AlphaScreen protocol according to manufacturer's specifications. The agonist effect of compounds was expressed as 100×(average sample-average blank)/(average total-average blank) where sample is the luminescence activity in the presence of test compound, blank is equal to the luminescence activity in the presence of DMSO control and the total is signal induced by 50 μM linolenic acid as reference compound. Activation data for the test compound over a range of concentrations was plotted as percentage activation of the test compound (100%=maximum response). After correcting for background, EC50 values were determined. The EC50 is defined as the concentration of test compound which produces 50% of the maximal response and was quantified using the 4 parameter logistic equation to fit the data.
The human and mouse GPR120-mediated intracellular phosphorylated ERK assays were also established using CHO-K1 cells stably transfected with the short form of human or mouse GPR120 receptor. […]
(Bead proximity is the source of the signal in Alpha formats.)

Each structure is given as a SMILES string.

By EC50 is commonly meant the concentration at which the effect is half-maximal. Low values mean an effect from little substance, high ones a need for much substance. Take `O=C(O)[C@@H]1C[C@H]1COc1ccc(-c2cnn(Cc3ccccc3)c2)cc1` (racemic) [Example 83, Trans-2-((4-(1-benzyl-1H-pyrazol-4-yl)phenoxy)methyl)cyclopropanecarboxylic acid]: the EC50 was determined as 3050 nM.
Same read-out and setting: to `O=C(O)[C@@H]1C[C@H]1CCc1ccc(-c2cccc(Oc3ccccc3)c2)cc1` (racemic) [Example 75, Trans-2-(2-(3′-phenoxy-[1,1′-biphenyl]-4-yl)ethyl) cyclopropanecarboxylic acid] belongs 180 nM.
As to `CC(C)Oc1ccc(F)c(-c2ccc(C[C@H]3C[C@@H]3CC(=O)O)cc2)c1` (racemic) [Example 33, Trans-2-(2-((2′-fluoro-5′-isopropoxy-[1,1′-biphenyl]-4-yl)methyl)cyclopropyl)acetic acid], the EC50 amounted to 60 nM.
Regarding `O=C(O)[C@@H]1C[C@H]1COc1ccc(-c2cc(Cl)cc(OC(F)(F)F)c2)cc1` (racemic) [Example 48, Trans-2-(((3′-chloro-5′-(trifluoromethoxy)-[1,1′-biphenyl]-4-yl)oxy)methyl)cyclopropanecarboxylic acid], the EC50 came out at 760 nM. This EC50 is about 13-fold higher than that of the compound before.
Turning to `Cc1nc(-c2ccccc2)c(-c2ccc(CC[C@@H]3C[C@H]3C(=O)O)cc2)s1` (single isomer, unassigned) [Example 27, Trans-2-(4-(2-methyl-4-phenylthiazol-5-yl)phenethyl)cyclopropanecarboxylic acid], a half-maximal effect (EC50) was put at 1230 nM. Against the preceding compound, the EC50 is about 1.6-fold higher.
As for `O=C(c1ccccc1)c1cccc(-c2ccc(OC[C@@H]3C[C@H]3C(=O)O)cc2)c1` (racemic) [Example 118, Trans-2-(((3′-benzoyl-[1,1′-biphenyl]-4-yl)oxy)methyl) cyclopropanecarboxylic acid], the 50% effective concentration (EC50) amounted to 460 nM.
For `O=C(O)[C@H]1C[C@H]1COc1ccc(-c2cc(Oc3ccccc3)ccc2F)cc1` (single isomer, unassigned) [Example 6], the response was half-maximal at 410 nM (EC50).
For the compound `CC(C)Oc1ccc(F)c(-c2ccc(CC[C@H]3C[C@@H]3C(=O)O)cc2)c1` (single isomer, unassigned) [Example 32], the EC50 was found to be 990 nM.
In turn, `O=C(O)[C@@H]1C[C@H]1COc1ccc(-c2cc(Oc3cccc(F)c3)cc(F)c2F)cc1F` (single isomer, unassigned) [Example 106] returned an EC50 of 270 nM.
Compound `CC(C)Oc1ccc(F)c(-c2ccc(OC[C@@H]3C[C@@H]3C(=O)O)cc2)c1` (single isomer, unassigned) [Example 8] had a concentration giving a half-maximal response (EC50) of 2860 nM.
For the compound `O=C(O)[C@@H]1C[C@H]1COc1ccc(-c2cc(OC3CCC3)ccc2F)cc1` (racemic) [Example 94, Trans-2-(((5′-cyclobutoxy-2′-fluoro-[1,1′-biphenyl]-4-yl)oxy)methyl) cyclopropanecarboxylic acid], the EC50 came out at 140 nM.
Consider `O=C(O)[C@@H]1C[C@H]1COc1ccc(-c2cc(F)cc(Oc3ccccc3)c2)cc1` (racemic) [Example 23, Trans-2-(((3′-fluoro-5′-phenoxy-[1,1′-biphenyl]-4-yl)oxy)methyl)cyclopropanecarboxylic acid], for which the EC50 amounted to 660 nM.
As to `CC(C)Oc1cc(Cl)cc(-c2ccc(OC[C@@H]3C[C@H]3C(=O)O)cc2)c1` (racemic) [Example 120, Trans-2-(((3′-chloro-5′-isopropoxy-[1,1′-biphenyl]-4-yl)oxy)methyl) cyclopropanecarboxylic acid], the concentration for a half-maximal effect (EC50) was 620 nM.
`O=C(O)[C@@H]1C[C@H]1COc1ccc(-c2cc(Oc3cc(F)cc(F)c3)ccc2F)cc1` (relative stereo) [Example 43, Trans-2-(((5′-(3,5-difluorophenoxy)-2′-fluoro-[1,1′-biphenyl]-4-yl)oxy)methyl)cyclopropanecarboxylic acid]: the midpoint of the response, the EC50, lay at 280 nM.
`CC(C)Oc1cc(Cl)cc(-c2ccc(OC[C@H]3C[C@@H]3C(=O)O)c(F)c2)c1` (racemic) [Example 12, Trans-2-(((3′-chloro-3-fluoro-5′-isopropoxy-[1,1′-biphenyl]-4-yl)oxy)methyl) cyclopropanecarboxylic acid] displayed an EC50 of 310 nM.
The compound `CC(C)Oc1ccc(F)c(-c2ccc(OC[C@@H]3C[C@H]3C(=O)O)c(F)c2)c1` (racemic) [Example 62, Trans-2-(((2′,3-difluoro-5′-isopropoxy-[1,1′-biphenyl]-4-yl)oxy)methyl) cyclopropanecarboxylic acid] yielded a half-maximal effective concentration (EC50) of 310 nM. In other words, the sub-micromolar range.
Regarding `CC(C)Oc1cc(F)cc(-c2ccc(OC[C@@H]3C[C@H]3C(=O)O)cc2)c1` (racemic) [Example 55, Trans-2-(((3′-fluoro-5′-isopropoxy-[1,1′-biphenyl]-4-yl)oxy)methyl) cyclopropanecarboxylic acid], the EC50 was 1060 nM.
Consider `CC(C)Oc1cc(F)cc(-c2ccc(OC[C@@H]3C[C@H]3C(=O)O)cc2F)c1` (racemic) [Example 60, Trans-2-(((2,3′-difluoro-5′-isopropoxy-[1,1′-biphenyl]-4-yl)oxy)methyl) cyclopropanecarboxylic acid], for which the EC50 was 570 nM.
In turn, `CC(C)Oc1cc(-c2ccc(OC[C@@H]3C[C@H]3C(=O)O)cc2)c(F)cn1` (racemic) [Example 70, Trans-2-((4-(5-fluoro-2-isopropoxypyridin-4-yl)phenoxy)methyl)cyclopropanecarboxylic acid] had an EC50 of 2400 nM.
Consider `C=C(C)COc1cc(F)cc(-c2ccc(OC[C@@H]3C[C@H]3C(=O)O)cc2)c1` (racemic) [Example 19, Trans-2-(((3′-fluoro-5′-((2-methylallyl)oxy)-[1,1′-biphenyl]-4-yl)oxy)methyl) cyclopropanecarboxylic acid], for which the “EC50 (μM)” value was “Not active”.
For `COc1cc(Cl)cc(-c2ccc(CC[C@@H]3C[C@H]3C(=O)O)cc2)c1` (racemic) [Example 77, Trans-2-(2-(3′-chloro-5′-methoxy-[1,1′-biphenyl]-4-yl)ethyl) cyclopropanecarboxylic acid], the EC50 was found to be 2340 nM.
In turn, `COC(=O)c1cccc(-c2ccc(CC[C@@H]3C[C@H]3C(=O)O)cc2)c1` (racemic) [Example 130, Trans-2-(2-(3′-(methoxycarbonyl)-[1,1′-biphenyl]-4-yl)ethyl) cyclopropanecarboxylic acid] showed an EC50 of 800 nM. This EC50 lies about 2.9-fold lower than the previous one.
For the compound `CC(C)Oc1ccc(F)c(-c2ccc(OC[C@@H]3C[C@H]3C(=O)O)cc2)c1` (single isomer, unassigned) [Example 3], a half-maximal response (EC50) required 470 nM.
The compound `CC(C)Oc1ccc(F)c(-c2ccc(OC[C@@H]3C[C@H]3C(=O)O)c(C=O)c2)c1` (racemic) [Example 87, Trans-2-(((2′-fluoro-3-formyl-5′-isopropoxy-[1,1′-biphenyl]-4-yl)oxy)methyl) cyclopropanecarboxylic acid] showed an EC50 of 1760 nM. Compared with the last compound, the EC50 is about 3.7-fold higher.
As for `COCCc1cc(-c2cc(OC(C)C)ccc2F)ccc1OC[C@@H]1C[C@H]1C(=O)O` (racemic) [Example 89, Trans-2-(((2′-fluoro-5′-isopropoxy-3-(2-methoxyethyl)-[1,1′-biphenyl]-4-yl)oxy)methyl) cyclopropanecarboxylic acid], it took 3250 nM to reach a half-maximal effect (EC50).
Turning to `O=C(O)C1CC1COc1ccc(-c2cc(Oc3cccc(F)c3)cc(F)c2F)cc1F` (racemic) [Example 104, Trans-2-(((2′,3,3′-trifluoro-5′-(3-fluorophenoxy)-[1,1′-biphenyl]-4-yl)oxy)methyl)cyclopropanecarboxylic acid], a half-maximal response (EC50) required 90 nM.

Source of the values: patent US9938222B2 (BRISTOL-MYERS SQUIBB COMPANY, priority 2014, dated 2018).
